Data reported in patent US5298502A, “Method and composition for photodynamic treatment and detection of tumors” (priority 1991, dated 1994).

How the values were obtained:
[1] = tested on: HeLa cells; assay: Tetrapyrrole accumulation in treated HeLa cells (Example 1); type: cell-based, human; settings: 3 days in the dark
Protocol: HeLa cells (a human tumor cell line commonly employed for tumor research and obtained from the American Type Culture Collection), in logarithmic growth phase (having been cultured at 37° C. for five days in one-liter Falcon tissue culture flasks), were washed in phosphate buffered saline (PBS). A 0.25% solution of trypsin in PBS (2 mL) was added, and, after several minutes, the cells were gently removed from the flask and placed into 110 mL of a 25 mM solution of Hepes in Minimum Essential Medium (MEM) supplemented with 10% v/v inactivated calf serum, 1.1 mL of a 200 mM solution of glutamine in 0.85% saline solution, and 11,000 units of penicillin/11,000 mcg streptomycin.
Then, 5.0 mL aliquots of the resulting resuspended cell culture were each placed into a 50 mL Falcon tissue culture flask and (except for the control) mixed with the treating agent. The aliquots were then incubated in the dark at 37° C. for three days. The cells were then removed and extracted under green light in the following manner:
Cells were removed from the bottom of the flask with the addition of 0.8 mL of a 0.25% solution of trypsin in PBS. After 1 hour of incubation in the dark, cells and medium were removed from the flasks, placed into round bottom centrifuge tubes, and then subjected to two rounds of freeze-thaw conditions to disrupt the cells and allow for extraction.
Ten mL of basic acetone (90% acetone:10% of 0.1 N NH4 OH) was then added to each tube, and the tubes were centrifuged to remove protein and cell debris. Five mL of water was added to the supernatant, followed by 0.5 mL of a saturated aqueous solution of NaCl. The pH was then adjusted to 6.8 by the dropwise addition of 2 M KH2 PO4. The aqueous acetone extract was then loaded onto a C8 Baker Prep column. The columns were dried and then washed with 2 mL of water. The tetrapyrroles were eluted with 2×1.5 mL volumes of 90/10 CH3 OH/H2 O. Extracts were then quantified on a spectrofluorometer.
Agent A was supplied as a filter-sterilized 250 mM solution in water, pH 6.5. Agents B, C, D, and E were supplied as 50 mM solutions in acetone. Acetone was also added to the control to provide a concentration of 0.2% v/v therein. The amounts of the agents added to the cell cultures were such as to give the concentrations specified in the Table 1 below. The amounts of the tetrapyrrole protoporphyrin IX ("Proto IX") produced are shown in that Table.

[2] = tested on: HeLa cells; assay: Proto IX in HeLa cells and culture medium, cell growth observations (Example 8); type: cell-based, human; settings: 100 μM agent, compared to the control; for inhibition at 100 µM: Homo sapiens, HeLa, read-out: inhibiting effect on cell growth (rough observations)
Protocol: In a manner similar to Examples 1 and 2, cultures of HeLa cells were incubated in the presence of 100 μM of various treating agents, listed below. The agent was added in dilute solution in dimethylsulfoxide (DMSO),and the controls contained 0.2% DMSO v/v. After such incubation the culture medium was poured off, removing it from the cells, the cells were loosened from the culture flasks by addition of 0.25% W/v trypsin Which remained in contact With the cells for 20 minutes at 37° C., after which a fluorometric medium was added to the flask. The fluorometric medium was the same as that described in Example 7 except that its pH was 6.5; this medium also acted as an extractant. The resulting extract was analyzed for proto IX content. The separated culture medium was also analyzed fluorometrically for Proto IX content. The pairs of percentages given, next to each treating agent, indicate the amount of Proto IX produced in the presence of that treating agent relative to the amount produced by the control in the same experiment; the first number of each pair relates to the concentration of Proto IX in the culture medium and the second number relates to the concentration in the cells. [drawing 12]

[3] = tested on: HeLa cells; assay: Growth inhibition and Proto IX accumulation in HeLa cells (Example 2); type: cell-based, human; settings: for Amount of Proto IX: average amount per 10^6 cells; for inhibition at 100 µM: 4 days in the dark
Protocol: HeLa cells, in logarithmic growth phase having been cultured for 6 days in six one-liter Falcon tissue culture flasks at 37° C.), were washed in phosphate buffered saline (PBS). A 0.25% solution of trypsin in PBS was added, and, after several minutes, the cells were gently removed and placed into 110 mL of a 25 mM solution of Hepes in Minimum Essential Medium (MEM), supplemented with 10% v/v inactivated calf serum, 1.1 mL of a 200 mM solution of glutamine in 0.85% saline solution, and 11,000 units of penicillin/11,000 mcg streptomycin.
Aliquots (5.0 mL each) of the resuspended cell culture were placed into 50 mL Falcon tissue culture flasks, with or without herbicide, and incubated in the dark at 37° C. for 4 days, the herbicide being added in dilute acetone solution as in Example 1. Acetone was also added to the controls to provide a concentration of acetone of 0.2% v/v therein. The amount of herbicide was such as to provide the concentrations specified in Table 2 below.
Extraction: The media from each of the flasks were placed in glass round bottom tubes, while the cells adhering to the bottom of the flasks were loosened by the addition of 0.5 mL of a 0.25% solution of trypsin in PBS, and after several minutes at 37° C., then washed from the flasks and recombined with their media. Aliquots of 100 μL were then removed from each cell suspension to determine cell density. The remaining 5.4 mL of cell suspension was then sonified for 30 minutes to disrupt the cells.
Ten mL of basic acetone (90% acetone:10% 0.1 N NH4 OH) was then added to each tube, and the tubes were centrifuged to remove protein and cell debris. Five mL of water was added to the supernatant, followed by 0.5 mL of a saturated aqueous solution of NaCl. The pH was then adjusted to 6.8 by the dropwise addition of 2 M KH2 PO4. The aqueous acetone extract was then loaded onto a C8 Baker Prep column. The columns were dried and then washed with 2 mL of water. The tetrapyrroles were eluted with 3 mL of 90/10 CH3 OH/H2 O. As in Example 1, all these extraction procedures were carried out substantially entirely under non-protoporphrin IX-exciting light (e.g. green light) or in the dark (e.g. in opaque covered containers). The fluorescence of the extracts was then determined on a SPEX spectrofluorometer. Protoporphyrin IX ("Proto IX") accumulation was quantified utilizing predetermined extinction coefficients.

[4] = tested on: DBA/2 Ha mice with SMT-F subcutaneous tumors; assay: Proto IX content of tissues of tumor-bearing mice fed the agent (Example 6); type: in vivo; settings: for concentration of Proto IX in tissue, Adrenal / concentration of Proto IX in tissue, Intestine / concentration of Proto IX in tissue, Kidneys / concentration of Proto IX in tissue, Liver / concentration of Proto IX in tissue, Tumor / Proto IX Mean Cps per gram, Intestine: 2000 ppm in feed; for Proto IX Mean Cps per gram, Adrenal / Proto IX Mean Cps per gram, Kidneys / Proto IX Mean Cps per gram, Liver / Proto IX Mean Cps per gram, Tumor / Weight of Tumor as excised: 2000 ppm in feed Days 2-10, sacrificed Day 10 (6j Day 7); for Proto IX Mean Cps per gram, Intestine: samples diluted with 3 parts basic acetone to one part sample
Protocol: In this Example the enzyme-inhibiting agents were added to the feed of tumor-bearing mice; for some of the mice, used as a control, no agent was added to the feed. The mice were then sacrificed and their kidneys, intestines, adrenal glands, liver and tumor were removed and analyzed for their content of Proto IX. The following enzyme-inhibiting agents were employed: [drawing 10]
More particularly, the mice were DBA/2 Ha mice which had been injected with SMT-F subcutaneous tumors on Day 0 in the right shoulder. The mice, individually housed, received untreated Purina Rodent Chow 5001 Mash on Day 1; thereafter on Days 2 through 10 the mice received the same Mash treated with 2000 ppm of the inhibiting agent being tested (or, for the controls, the same untreated Mash). The treatment of the Mash was effected by blending it with a small amount of an acetone solution of the agent to be tested. The mice were then sacrificed on Day 10, except for the mouse treated with the agent designated as 6j; the latter was sacrificed on Day 7. The tissues were refrigerated at 4° C. overnight, then blotted dry, and the fresh weight of each tissue sample was recorded. The tissues were then homogenized in 5 mL, or lo mL in the cases of intestines and liver, of acetone-0.1 N NH4 OH (9:I, v/v). The homogenates were then centrifuged at 1500 g and the supernatants were analyzed on a SPEX FAII2 spectrofluorometer; excitation 400 nm, emission 630 nm wavelengths, the optima for Proto IX. Proto IX accumulation was determined as CPS (fluorescent counts per second emitted) per gram of tissue. The results are tabulated below (results are averages for two mice for each treatment, except for treatments with agents 6f, 6h, 6i and 6j in each of which only one mouse was treated): […]

[5] = Homo sapiens, HeLa, 96 h, 100 μM agent

## NCC(=O)CCC(=O)O [Agent A, 5-amino levulinic acid, reference compound]
[1]; 5000 μM agent
  Amount of Proto IX: 4.2 pmol
  Fluorescence Emission cps 400/630: 41842 cps

## CC1(C)Cc2c(Br)ccc(OC(=O)N3CCCC3)c2O1 [Compound 8ae]
[2]
  effect on cell growth (rough observations): lethal

## CCOC(=O)C(C)Oc1ccc(Oc2cc(-n3nc(C)n(C(F)F)c3=O)c(F)cc2Cl)cc1 (stereo not shown) [Agent C]
[1]; 100 μM agent
  Amount of Proto IX: 3.5 pmol
  Fluorescence Emission cps 400/630: 33477 cps
[3]; 1 μM agent
  Amount of Proto IX: 0.19 pmol
[3]; 10 μM agent
  Amount of Proto IX: 0.57 pmol
[3]; 100 μM agent
  Amount of Proto IX: 4.41 pmol
[3]; Homo sapiens, HeLa, 96 h, 1 μM agent, percent of control, read-out: Relative % proto IX
  activity at 1 µM: 86%
[3]; Homo sapiens, HeLa, 96 h, 10 μM agent, percent of control, read-out: Relative % proto IX
  activity at 10 µM: 259%
[3]; [5]
  inhibition at 100 µM: 52%
[3]; Homo sapiens, HeLa, 1 μM agent, negative values indicate that growth occurred
  inhibition at 1 µM: -26%
[3]; Homo sapiens, HeLa, 10 μM agent, negative values indicate that growth occurred
  inhibition at 10 µM: -15%

## CCS(=O)(=O)Nc1cc(-n2nnn(-c3ccc([N+](=O)[O-])cc3)c2=O)c(F)cc1Cl [Compound 8af]
[2]
  effect on cell growth (rough observations): lethal

## COC(=O)c1cc(Oc2ccc(Cl)cc2Cl)ccc1[N+](=O)[O-] [Compound 8ap]
[2]
  inhibition at 100 µM: 50%

## CC(C)Oc1cc(-n2nc(C(C)(C)C)oc2=O)c(Cl)cc1Cl [Agent 6d]
[4]
  concentration of Proto IX in tissue, Adrenal: 4 ug of Proto IX per gram of tis
  concentration of Proto IX in tissue, Intestine: 51 ug of Proto IX per gram of tis
  concentration of Proto IX in tissue, Kidneys: 117 ug of Proto IX per gram of tis
  concentration of Proto IX in tissue, Liver: 14 ug of Proto IX per gram of tis
  concentration of Proto IX in tissue, Tumor: 18 ug of Proto IX per gram of tis
  Proto IX Mean Cps per gram, Adrenal: 443 Cps per gram × 10^3
  Proto IX Mean Cps per gram, Kidneys: 12865 Cps per gram × 10^3
  Proto IX Mean Cps per gram, Liver: 1581 Cps per gram × 10^3
  Proto IX Mean Cps per gram, Tumor: 2006 Cps per gram × 10^3
  Weight of Tumor as excised: 294 mg
  Proto IX Mean Cps per gram, Intestine: 5565 Cps per gram × 10^3

## C#CCOc1cc(N2C(=O)C(C)=C(C)C2=O)c(F)cc1Cl [Compound 8ab]
[2]
  effect on cell growth (rough observations): lethal

## C#CCOc1cc(N2N=CCN(C)C2=O)c(F)cc1Cl [Compound 8u]
[2]
  inhibition at 100 µM: 60%

## CCOC(=O)C(C)OC(=O)c1cc(Oc2ccc(C(F)(F)F)cc2Cl)ccc1[N+](=O)[O-] (stereo not shown) [Compound 8an]
[2]
  inhibition at 100 µM: 50%

## O=[N+]([O-])c1ccc(Oc2ccc(Cl)cc2Cl)cc1 [Compound 8ar]
[2]
  inhibition at 100 µM: 25%

## COc1ccc(OC)c(CNC(=O)c2ccc(Cl)cc2)c1 [Compound 8aj]
[2]
  inhibition at 100 µM: 25%

## CCOC(=O)C(C)Oc1ccc(Cn2c(C)nn(-c3cc(OC)c(Cl)cc3F)c2=O)cc1 (stereo not shown) [Compound 8ag]
[2]
  inhibition at 100 µM: 25%

## C#CCOc1cc(N2C(=O)C3CCCCC3C2=O)c(F)cc1Cl (stereo not shown) [Compound 8ac]
[2]
  inhibition at 100 µM: 50%

## Cc1nc2ccccc2n1Cc1c(F)c(F)c(F)c(F)c1F [Compound 8ad]
[2]
  effect on cell growth (rough observations): lethal

## CC(C)Oc1cc(-n2nc(C(C)(C)C)oc2=O)c(Cl)cc1Cl [Agent F]
[3]; 100 μM agent
  Amount of Proto IX: 2.71 pmol
[3]; [5]
  inhibition at 100 µM: 106%

## C#CCOc1cc(N=C2SCC(=O)N2C)c(F)cc1Cl [Compound 8ah]
[2]
  effect on cell growth (rough observations): lethal

## C#CCN1C(=O)COc2cc(F)c(-n3ncc(=O)n(C)c3=O)cc21 [Agent D]
[1]; 100 μM agent
  Amount of Proto IX: 1.1 pmol
  Fluorescence Emission cps 400/630: 10551 cps

## CC(C)Oc1cc(-n2c(=O)n3n(c2=S)CCCC3)c(F)cc1Cl [Agent 6e]
[4]
  concentration of Proto IX in tissue, Adrenal: 12 ug of Proto IX per gram of tis
  concentration of Proto IX in tissue, Intestine: 19 ug of Proto IX per gram of tis
  concentration of Proto IX in tissue, Kidneys: 8 ug of Proto IX per gram of tis
  concentration of Proto IX in tissue, Liver: 8 ug of Proto IX per gram of tis
  concentration of Proto IX in tissue, Tumor: 8 ug of Proto IX per gram of tis
  Proto IX Mean Cps per gram, Adrenal: 1331 Cps per gram × 10^3
  Proto IX Mean Cps per gram, Kidneys: 915 Cps per gram × 10^3
  Proto IX Mean Cps per gram, Liver: 876 Cps per gram × 10^3
  Proto IX Mean Cps per gram, Tumor: 837 Cps per gram × 10^3
  Weight of Tumor as excised: 165 mg
  Proto IX Mean Cps per gram, Intestine: 2069 Cps per gram × 10^3

## Cn1c(=O)cnn(-c2ccc(Cl)cc2F)c1=O [Agent E]
[1]; 100 μM agent
  Amount of Proto IX: 0.9 pmol
  Fluorescence Emission cps 400/630: 8967 cps

## O=C(Nc1ccc(Cl)cc1)C(F)(F)Sc1ccccc1 [Compound 8ak]
[2]
  inhibition at 100 µM: 50%

## CC(C)Oc1cc(-n2oc(=O)n(C)c2=O)c(F)cc1Cl [Compound 8ai]
[2]
  inhibition at 100 µM: 50%

## C#CCOc1cc(-n2ncc(=O)n(C)c2=O)c(F)cc1Cl [Compound 8t]
[2]
  inhibition at 100 µM: 50%
